Assay results reported in US20040248139A1, “Eit-6, a polypeptide encoded by an estrogen regulated gene” (priority 2001, published 2004).

What was measured:
[1] = tested on: prolyl hydroxylase enzymes; details: literature, compared with P2,5D where stated; cited from earlier work
[2] = tested on: EIT-6 mRNA in BT-474 cells; assay: Northern blot of EIT-6 mRNA, BT-474 cells; assay type: cell-based, human
Method: All the cell lines were obtained from the ATCC.
To determine if the induction of EIT-6 by estrogen is estrogen receptor-mediated, the effect of estrogen antagonists (4-hydroxy-tamoxifen and ICI 182,780) on EIT-6 mRNA levels was determined. BT-474 cells were cultured with […] (1 μM) or 4-hydroxy-tamoxifen (10 μM) for 6 hours prior to estrogen (10 nM) treatment for an additional 24 hours. […] There are multiple mechanisms by which estrogen can regulate the expression of EIT-6, e.g., (1) directly by transcriptional regulation, (2) directly by influencing mRNA stability, or (3) indirectly through other transcription factors/signaling pathways. […] To further investigate if EIT-6 is a direct or indirect target of estrogen receptors, EIT-6 mRNA levels were measured following estrogen treatment BT-474 cells in the presence of a protein synthesis inhibitor (cycloheximide) (FIG. 2B). The cells were treated with cycloheximide (10 μg/ml) for 16 hours in the presence or absence of estrogen.

[3] = tested on: ZR75-1 breast cancer cells; assay: SAGE (serial analysis of gene expression) after estrogen or tamoxifen treatment; assay type: cell-based, human; details: 10 nM estradiol, 16 h
From the text: (§1) In order to identify genes involved in the response of breast cancer cells to estrogen and tamoxifen, SAGE libraries were generated from an estrogen- dependent human breast cancer cell line (ZR75-1; obtained from the American type Culture Collection (ATTC), Manassas, VA) prior to and following estrogen or tamoxifen treatment. SAGE facilitated the determination of the absolute abundance of thousands of different mRNAs simultaneously in a comprehensive and unbiased way and to detect even slight differences in expression levels between samples [Velculescu et al. (1995) Science 270: 484-487; Polyak et al. (1997) Nature 389:300-305; Lal et al. (1999) Cancer Res. 59:5403-5607; Velculescu et al. (1999) Nature Genetics 23:387-388]. ZR75-1 cells cultured in the absence of steroid hormones (i.e., in phenol red-free culture medium containing charcoal-treated fetal bovine serum (FBS) (5%)) for seven days were split into three aliquots which were then cultured in fresh steroid-free medium containing no additive, 10 nM estradiol, or 10 μM 4-hydroxy-tamoxifen. Cells were harvested from the cultures after sixteen hours and response to the hormone treatment was confirmed by FACS analysis of cell cycle progression and by Northern blot analysis to test for the expression of known estrogen target genes.
SAGE libraries from untreated, estrogen-treated and tamoxifen-treated ZR75-1 cells were generated using a modified micro-SAGE protocol [Porter et al. (2001) Cancer Res. 61: 5697-5702]. From the three SAGE libraries 140,638 tags were obtained, approximately 45,000 from each library. Hierarchical clustering was applied to data using the Auster program developed by Eisen et al. [(1998) Proc. Natl. Acad. Sci. USA. 95: 14863-14868]. Data was log-transformed and filtered for at least 1 observations abs Val 5 and Maxval-Minval >5. Using these settings 2,818 genes (out of 16,808 total) were included in the analysis that led to the identification of several estrogen- and/or tamoxifen-induced transcripts. […] Linking the UniGene database to the SAGE data identified the cDNAs corresponding to the SAGE tags in most of the cases (Table 1). Genes were named according to their relative abundance in the three SAGE libraries: EIT (Estrogen Induced Tag)-induced by estrogen; TIT (Tamoxifen Induced Tag)-induced by tamoxifen; and DET (Differently Expressed Tag)-differently expressed following estrogen or tamoxifen treatment.

ZR75-1 cells = assay: FACS analysis of cell cycle progression; assay type: cell-based, human; details: steroid-deprived ZR75-1 cells; 10 nM estradiol or 10 μM 4-hydroxy-tamoxifen, 16 h
From the text: as §1

[4] = tested on: EIT-6 mRNA in ZR75-1 cells; assay: Northern blot of EIT-6 mRNA, ZR75-1 cells; assay type: cell-based, human
From the text: To confirm the result of the SAGE experiment, probes corresponding to some of the cDNA clones were generated and the induction of the relevant genes was confirmed by Northern blot analysis (FIG. 1A) performed as previously described [Polyak et al. (1997)]. Of the twenty estrogen- or tamoxifen-induced genes (Table 1), only one (EIT-10;cathepsin D) had previously been implicated as a target of ER-transcriptional activation and three had not previously been described at all. In most cases the sequences of the relevant genes provided important clues as to their potential functions (Table 1). Several of the genes are predicted to be involved in the regulation of cell proliferation and/or survival. […]

[5] = tested on: T47D ER+ breast cancer cells; assay: Colony assay, T47D cells; assay type: cell-based, human; details: control pCEP4 and EIT-6 transfected cells, charcoal/dextran treated FBS, estrogen 10 nM
Method: In order to test whether EIT-6 expresssion influences cell proliferation and/or survival, colony assays were performed. […] T47D ER+breast cancer cells were transfected with a control construct (pCEP4) or the pCEP4-EIT6 construct. Stable transfectants were selected by culturing the cells in the presence of hygromycin for two weeks after which colonies were visualized by crystal violet staining. […] The number of colonies per cm^2 was determined by spot-densitometry-assisted counting using a MultiImage Lightbox (Alfa Innotech, San Leandro, Calif.). Two flasks per experimental group and two independent areas in each flask were analyzed.
To test if expression of EIT-6 can confer estrogen independent growth, ER+and estrogen dependent T47D breast cancer cells were transfected with control pCEP4 or pCEP4-EIT6 constructs. Stable transfectants were selected by culturing the cells in phenol red-free medium supplemented with charcoal/dextran treated (and thus steroid hormone depleted) FBS (5%) and hygromycin. Half the flasks contained estrogen (10 nM). After two weeks of dry selection, colonies were visualized by crystal violet staining and counted as described above.

EIT-6 promoter region = details: ~5.5 kb EIT-6 promoter construct co-transfected with estrogen receptor α
Method: To further characterize the mechanism by which the estrogen receptor induces EIT-6, a fragment of the proximal EIT-6 promoter was tested for its ability to confer estrogen responsiveness on a luciferase reporter gene. The luciferase construct was generated by subcloning a BAC (bacterial artificial chromosome)-derived fragment of EIT-6 promoter region (approximately 5.5 kb in length) into pBR-pl-luc [Polyak et al. (1997)]. The cells were transfected using FuGene 6 (Roche, Basel, Switzerland) and treated with estrogen the day after transfection. On the day following estrogen treatment luciferase activity was determined using a luciferase assay system (Promega, Madison, Wis.). […] Luciferase and β-galactosidase activity was measured following transient co-transfection of these constructs with the estrogen receptor α-encoding construct (referred to above) and a vector containing a β-galactosidase-encoding cDNA sequence under control of a constitutive (CMV) promoter into HepG2 cells as described above and the values of luciferase activity were normalized for transfection efficiency by calculating ratios of luciferase activity to β-galactosidase activity which was measured using the Aurora GAL-XE reporter gene assay (ICN, Costa Mesa, Calif.). “Fold induction” was calculated according to the following formula:

[6] = tested on: putative estrogen responsive elements (ERE) in HepG2 cells; assay: Luciferase reporter assay, ERE concatamer constructs with estrogen receptor α in HepG2 cells
Method: The cells were transfected using FuGene 6 (Roche, Basel, Switzerland) and treated with estrogen the day after transfection. On the day following estrogen treatment luciferase activity was determined using a luciferase assay system (Promega, Madison, Wis.). […] To determine whether these putative EREs could confer estrogen responsiveness, various constructs containing concatemers of each of these elements (in a variety of combinations) up-stream of a luciferase gene were generated (FIG. 2D). These concatamer constructs were generated by subcloning concatamers of PCR-derived fragments (of the EIT-6 promoter region) containing the putative ERE's into pBR-pl-TATA-luc [Polyak et al. (1997) Nature 389:300-305]. Luciferase and β-galactosidase activity was measured following transient co-transfection of these constructs with the estrogen receptor α-encoding construct (referred to above) and a vector containing a β-galactosidase-encoding cDNA sequence under control of a constitutive (CMV) promoter into HepG2 cells as described above and the values of luciferase activity were normalized for transfection efficiency by calculating ratios of luciferase activity to β-galactosidase activity which was measured using the Aurora GAL-XE reporter gene assay (ICN, Costa Mesa, Calif.). “Fold induction” was calculated according to the following formula:
Fold induction=(luciferase activity in estrogen treated cells÷βgalactosidase activity in estrogen treated cells)÷(luciferase activity in control cells÷βgalactosidase activity in control cells).

[7] = BT-474, 16 h, cycloheximide 10 μg/ml

C[C@@H](NC(=O)C(=O)O)C(=O)O [N-oxalyl-2R-alanine]
inhibition of prolyl hydroxylase [1]: not

C[C@H](NC(=O)C(=O)O)C(=O)O [N-oxalyl-2S-alanine]
inhibition of prolyl hydroxylase [1]: Inhibitory

C[C@]12CC[C@@H]3c4ccc(O)cc4C[C@@H](CCCCCCCCC[S+]([O-])CCCC(F)(F)C(F)(F)F)[C@H]3[C@@H]1CC[C@@H]2O (stereo partly shown) [ICI 182,780]
abolition of estrogen induction of EIT-6 mRNA ([2]; BT-474, antagonist (ICI 1 μM or 4-hydroxy-tamoxifen 10 μM) 6 h before estrogen 10 nM for 24 h): completely

C[C@]12CC[C@@H]3c4ccc(O)cc4CC[C@H]3[C@@H]1CC[C@@H]2O [estrogen, estradiol]
SAGE tags, E (estrogen-treated) ([3]; gene DET-1, untreated C = 4): 15
SAGE tags, E (estrogen-treated) ([3]; gene DET-2, untreated C = 3): 13
SAGE tags, E (estrogen-treated) ([3]; gene DET-13, untreated C = 7): 1
SAGE tags, E (estrogen-treated) ([3]; gene DET-14, untreated C = 4): 1
SAGE tags, E (estrogen-treated) ([3]; gene DET-15 (USF2), untreated C = 11): 1
SAGE tags, E (estrogen-treated) ([3]; gene DET-16, untreated C = 7): 0
SAGE tags, E (estrogen-treated) ([3]; gene DET-17 (SULT 1A), untreated C = 0): 1
SAGE tags, E (estrogen-treated) ([3]; gene EIT-1, untreated C = 1): 14
SAGE tags, E (estrogen-treated) ([3]; gene EIT-2 (TIM17B), untreated C = 1): 14
SAGE tags, E (estrogen-treated) ([3]; gene EIT-3, untreated C = 2): 19
SAGE tags, E (estrogen-treated) ([3]; gene EIT-4, untreated C = 2): 18
SAGE tags, E (estrogen-treated) ([3]; gene EIT-5, untreated C = 5): 27
SAGE tags, E (estrogen-treated) ([3]; gene EIT-6, untreated C = 5): 26
SAGE tags, E (estrogen-treated) ([3]; gene EIT-10 (Cathepsin D), untreated C = 112): 451
SAGE tags, E (estrogen-treated) ([3]; gene TIT-1, untreated C = 0): 4
SAGE tags, E (estrogen-treated) ([3]; gene TIT-2, untreated C = 0): 3
SAGE tags, E (estrogen-treated) ([3]; gene TIT-3, untreated C = 8): 28
SAGE tags, E (estrogen-treated) ([3]; gene TIT-4, untreated C = 7): 27
SAGE tags, E (estrogen-treated) ([3]; gene TIT-5, untreated C = 9): 19
S-phase entry (ZR75-1 cells): stimulated rapid S-phase entry
induction of EIT-6 mRNA [4]: ~5 fold
EIT-6 mRNA levels, separate treatment [2, 7]: modestly increased
EIT-6 mRNA levels, estrogen in the presence of cycloheximide ([2]; BT-474, cycloheximide 10 μg/ml, 16 h): much stronger induction
induction of EIT-6 mRNA ([2]; BT-474 cells, Northern blot): ~10 fold
colony numbers on addition of estrogen [5]: increased colony numbers
luciferase activity (EIT-6 promoter region): modest but reproducible induction
fold induction of luciferase by estrogen ([6]; E4 construct (3 copies of the E4 ERE), HepG2, normalized to β-galactosidase): 4-5 fold
fold induction of luciferase by estrogen ([6]; VIT construct (two copies of vitellogenin consensus ERE), HepG2): 10-11 fold
estrogen responsiveness of luciferase constructs ([6]; most of the putative ERE combinations, HepG2): relatively weak

O=C(O)CNC(=O)C(=O)O [N-oxalylglycine]
inhibition of prolyl hydroxylase [1]: Inhibitory

C[C@@H]1C[C@@H]([C@H](O)CC2CC(=O)NC(=O)C2)C(=O)[C@@H](C)C1 [cycloheximide]
EIT-6 mRNA levels, separate treatment [2, 7]: modestly increased
